Read-outs that look alike come from different tables or passages of the source.
Columns and labels:
[1] = molecular target: TNIK (Homo sapiens (Human), UniProt Q9UKE5); assay: TNIK enzymatic assay (radiometric kinase inhibition); type: biochemical
Procedure: The compounds were studied for function as TNIK inhibitors to generate the data of Table 1. […] (specific activity and concentration as required). The reaction is initiated by the addition of the Mg/ATP mix. After incubation for 40 minutes at room temperature, the reaction is stopped by the addition of phosphoric acid to a concentration of 0.5%.

[2] = molecular target: MAP4K4 (h) (Homo sapiens (Human), UniProt O95819); assay: MAP4K4 in vitro kinase assay (radiometric); type: biochemical; settings: read-out: MAP4K4_IC50
Sequence of MAP4K4 (h) (O95819 whole entry): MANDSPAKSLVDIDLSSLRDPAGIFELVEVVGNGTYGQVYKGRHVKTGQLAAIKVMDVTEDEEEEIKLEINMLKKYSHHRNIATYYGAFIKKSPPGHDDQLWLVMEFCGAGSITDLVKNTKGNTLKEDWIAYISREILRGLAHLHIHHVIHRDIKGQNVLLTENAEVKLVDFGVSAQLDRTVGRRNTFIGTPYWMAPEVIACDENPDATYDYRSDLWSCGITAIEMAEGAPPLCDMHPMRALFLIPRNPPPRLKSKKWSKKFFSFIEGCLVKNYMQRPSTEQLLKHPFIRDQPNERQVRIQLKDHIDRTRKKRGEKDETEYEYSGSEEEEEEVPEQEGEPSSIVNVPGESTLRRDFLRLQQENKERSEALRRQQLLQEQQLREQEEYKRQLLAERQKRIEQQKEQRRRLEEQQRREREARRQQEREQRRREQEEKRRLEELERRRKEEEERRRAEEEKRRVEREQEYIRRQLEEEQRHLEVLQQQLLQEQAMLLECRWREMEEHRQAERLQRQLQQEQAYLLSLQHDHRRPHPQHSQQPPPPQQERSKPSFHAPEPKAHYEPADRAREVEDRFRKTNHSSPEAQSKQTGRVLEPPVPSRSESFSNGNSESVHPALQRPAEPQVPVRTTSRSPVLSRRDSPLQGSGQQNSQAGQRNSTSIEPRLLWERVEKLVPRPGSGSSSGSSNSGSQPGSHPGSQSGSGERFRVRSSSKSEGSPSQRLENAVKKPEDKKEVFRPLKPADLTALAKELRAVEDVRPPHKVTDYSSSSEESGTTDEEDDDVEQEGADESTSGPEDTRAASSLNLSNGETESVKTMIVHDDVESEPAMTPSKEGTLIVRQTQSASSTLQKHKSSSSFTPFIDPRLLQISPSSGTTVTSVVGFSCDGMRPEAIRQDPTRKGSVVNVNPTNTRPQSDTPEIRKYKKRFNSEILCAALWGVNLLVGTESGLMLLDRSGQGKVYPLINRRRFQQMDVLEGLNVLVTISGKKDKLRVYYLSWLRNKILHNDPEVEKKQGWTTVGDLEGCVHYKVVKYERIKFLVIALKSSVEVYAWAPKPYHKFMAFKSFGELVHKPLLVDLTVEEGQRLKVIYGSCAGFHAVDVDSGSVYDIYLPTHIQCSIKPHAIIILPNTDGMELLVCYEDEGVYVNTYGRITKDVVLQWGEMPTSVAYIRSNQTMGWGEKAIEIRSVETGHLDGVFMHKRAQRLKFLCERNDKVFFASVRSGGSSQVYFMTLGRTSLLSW
Procedure: (specific activity and concentration as required). The reaction is initiated by the addition of the Mg/ATP mix. After incubation for 40 minutes at room temperature, the reaction is stopped by the addition of phosphoric acid to a concentration of 0.5%.

[3] = TNIK enzymatic assay, Table 1, read-out: IC50

Sequence of TNIK (Q9UKE5 whole entry): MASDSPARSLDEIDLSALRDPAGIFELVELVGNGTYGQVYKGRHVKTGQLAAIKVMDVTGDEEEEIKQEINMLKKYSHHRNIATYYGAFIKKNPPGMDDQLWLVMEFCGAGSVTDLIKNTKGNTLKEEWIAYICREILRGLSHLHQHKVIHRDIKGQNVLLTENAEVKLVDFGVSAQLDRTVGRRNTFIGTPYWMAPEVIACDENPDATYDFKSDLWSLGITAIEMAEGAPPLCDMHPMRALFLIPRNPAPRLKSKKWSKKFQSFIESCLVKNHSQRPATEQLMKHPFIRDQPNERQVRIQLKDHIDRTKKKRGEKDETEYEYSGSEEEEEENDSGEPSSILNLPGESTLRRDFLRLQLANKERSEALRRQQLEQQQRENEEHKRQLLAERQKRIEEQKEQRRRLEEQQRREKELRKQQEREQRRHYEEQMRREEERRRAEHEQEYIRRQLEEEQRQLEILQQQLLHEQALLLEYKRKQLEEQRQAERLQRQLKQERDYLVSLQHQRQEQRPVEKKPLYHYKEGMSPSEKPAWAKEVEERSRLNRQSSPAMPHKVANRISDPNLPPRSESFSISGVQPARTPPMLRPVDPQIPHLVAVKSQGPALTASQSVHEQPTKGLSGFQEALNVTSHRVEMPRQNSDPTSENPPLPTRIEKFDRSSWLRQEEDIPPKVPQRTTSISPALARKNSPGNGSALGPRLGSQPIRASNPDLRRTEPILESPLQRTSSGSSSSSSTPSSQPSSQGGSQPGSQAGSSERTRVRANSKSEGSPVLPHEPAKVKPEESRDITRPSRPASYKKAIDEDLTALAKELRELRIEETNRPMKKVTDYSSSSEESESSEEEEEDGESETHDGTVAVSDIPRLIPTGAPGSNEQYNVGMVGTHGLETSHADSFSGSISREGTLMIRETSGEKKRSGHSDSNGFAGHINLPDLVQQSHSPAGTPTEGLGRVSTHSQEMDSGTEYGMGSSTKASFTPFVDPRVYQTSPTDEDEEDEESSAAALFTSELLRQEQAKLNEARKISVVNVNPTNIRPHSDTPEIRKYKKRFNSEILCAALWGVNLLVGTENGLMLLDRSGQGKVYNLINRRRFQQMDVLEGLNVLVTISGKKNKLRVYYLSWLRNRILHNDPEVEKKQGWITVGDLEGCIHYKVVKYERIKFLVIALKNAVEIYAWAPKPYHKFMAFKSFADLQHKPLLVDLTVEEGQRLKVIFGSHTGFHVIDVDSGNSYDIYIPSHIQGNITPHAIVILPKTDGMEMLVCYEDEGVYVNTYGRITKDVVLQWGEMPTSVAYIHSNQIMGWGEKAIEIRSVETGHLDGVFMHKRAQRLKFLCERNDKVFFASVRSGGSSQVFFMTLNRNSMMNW

SMILES	IC50 [1, 3] [nM]	IC50 ([1]; read-out: TNIK_IC50) [nM]	IC50 [2] [nM]
Cc1cc(F)ccc1NC(=O)c1ccc(-c2c(-c3ccc(F)cc3)ncn2C2CCCC2)o1 [Compound 43, 5-(1-cyclopentyl-4-(4-fluorophenyl)-1H-imidazol-5-yl)-N-(4-fluoro-2-methylphenyl)furan-2-carboxamide]	172	172	139
Cc1ccc(Cl)cc1NC(=O)c1ccc(-c2c(-c3ccc(F)cc3)ncn2C2CCCC2)o1 [Compound 17, N-(5-chloro-2-methylphenyl)-5-(1-cyclopentyl-4-(4-fluorophenyl)-1H-imidazol-5-yl)furan-2-carboxamide]	46	46	106
Cc1cccc(NC(=O)c2ccc(-c3c(-c4ccc(F)cc4)ncn3C3CCCCC3)o2)c1C [Compound 59, 5-(1-cyclohexyl-4-(4-fluorophenyl)-1H-imidazol-5-yl)-N-(2,3-dimethylphenyl)furan-2-carboxamide]	562	562	> 1000
O=C(Nc1ccccc1F)c1ccc(-c2c(-c3cncnc3)ncn2C2CCCC2)o1 [Compound 94, 5-(1-cyclopentyl-4-(pyrimidin-5-yl)-1H-imidazol-5-yl)-N-(2-fluorophenyl)furan-2-carboxamide]	–	> 10000	> 10000
COc1ccccc1NC(=O)c1ccc(-c2c(-c3ccc(F)cc3)ncn2C2CCCCC2)o1 [Compound 79, 5-(1-cyclohexyl-4-(4-fluorophenyl)-1H-imidazol-5-yl)-N-(2-methoxyphenyl)furan-2-carboxamide]	16	16	22.2
CC(=O)c1ccc(NC(=O)c2ccc(-c3c(-c4ccc(F)cc4)ncn3C3CCCCC3)o2)cc1 [Compound 51, N-(4-acetylphenyl)-5-(1-cyclohexyl-4-(4-fluorophenyl)-1H-imidazol-5-yl)furan-2-carboxamide]	57	57	126
COc1cnccc1NC(=O)c1ccc(-c2c(-c3ccc(F)cc3)ncn2CC2CCOC2)o1 (stereo not drawn) [Compound A-37, 5-(4-(4-fluorophenyl)-1-((tetrahydrofuran-3-yl)methyl)-1H-imidazol-5-yl)-N-(3-methoxypyridin-4-yl)furan-2-carboxamide]	–	26.4	50.3
COc1cccc(NC(=O)c2ccc(-c3c(-c4ccc(C)cc4)ncn3C3CCCCC3)o2)c1 [Compound 4, 5-(1-cyclohexyl-4-(p-tolyl)-1H-imidazol-5-yl)-N-(3-methoxyphenyl)furan-2-carboxamide]	9320	9320	> 1000
O=C(Nc1ccncn1)c1ccc(-c2c(-c3ccc(F)cc3)ncn2C2COCC2(F)F)o1 (stereo not drawn) [Compound A-40, 5-(1-(4,4-difluorotetrahydrofuran-3-yl)-4-(4-fluorophenyl)-1H-imidazol-5-yl)-N-(pyrimidin-4-yl)furan-2-carboxamide]	–	26.3	50.5
Cc1cc(Cl)ccc1NC(=O)c1ccc(-c2c(-c3ccc(F)cc3)ncn2C2CCCC2)o1 [Compound 16, N-(4-chloro-2-methylphenyl)-5-(1-cyclopentyl-4-(4-fluorophenyl)-1H-imidazol-5-yl)furan-2-carboxamide]	38	38	101
COC(=O)c1ccccc1NC(=O)c1ccc(-c2c(-c3ccc(F)cc3)ncn2C2CCCC2)o1 [Compound 27, methyl 2-(5-(1-cyclopentyl-4-(4-fluorophenyl)-1H-imidazol-5-yl)furan-2-carboxamido)benzoate]	< 10	5.11	11.5
Cc1ccc(NC(=O)c2ccc(-c3c(-c4ccc(F)cc4)ncn3C3CCCC3)o2)c(C)c1 [Compound 32, 5-(1-cyclopentyl-4-(4-fluorophenyl)-1H-imidazol-5-yl)-N-(2,4-dimethylphenyl)furan-2-carboxamide]	12	12	96.9
CCc1ccccc1NC(=O)c1ccc(-c2c(-c3ccc(F)cc3)ncn2C2CCCCC2)o1 [Compound 61, 5-(1-cyclohexyl-4-(4-fluorophenyl)-1H-imidazol-5-yl)-N-(2-ethylphenyl)furan-2-carboxamide]	164	164	247
Cc1cccc(C)c1NC(=O)c1ccc(-c2c(-c3ccc(F)cc3)ncn2C2CCCCC2)o1 [Compound 60, 5-(1-cyclohexyl-4-(4-fluorophenyl)-1H-imidazol-5-yl)-N-(2,6-dimethylphenyl)furan-2-carboxamide]	874	874	> 1000
CCOC(=O)c1ccc(NC(=O)c2ccc(-c3c(-c4ccc(F)cc4)ncn3C3CCCC3)o2)cc1 [Compound 33, ethyl 4-(5-(1-cyclopentyl-4-(4-fluorophenyl)-1H-imidazol-5-yl)furan-2-carboxamido)benzoate]	27	27	87.3

More lines, now with the values ahead:

IC50 [1, 3] [nM]	IC50 ([1]; read-out: TNIK_IC50) [nM]	IC50 [2] [nM]	SMILES
231	231	204	COc1cc(NC(=O)c2ccc(-c3c(-c4ccc(F)cc4)ncn3C3CCCC3)o2)cc(OC)c1 [Compound 19, 5-(1-cyclopentyl-4-(4-fluorophenyl)-1H-imidazol-5-yl)-N-(3,5-dimethoxyphenyl)furan-2-carboxamide]
275	275	581	COc1cc(NC(=O)c2ccc(-c3c(-c4ccc(F)cc4)ncn3C3CCCCC3)o2)cc(OC)c1 [Compound 58, 5-(1-cyclohexyl-4-(4-fluorophenyl)-1H-imidazol-5-yl)-N-(3,5-dimethoxyphenyl)furan-2-carboxamide]
< 10	43.2	51.6	Cc1ccc(NC(=O)c2ccc(-c3c(-c4ccc(F)cc4)ncn3C3CCCC3)o2)cc1 [Compound 47, 5-(1-cyclopentyl-4-(4-fluorophenyl)-1H-imidazol-5-yl)-N-(p-tolyl)furan-2-carboxamide]
101	101	141	COc1cccc(NC(=O)c2ccc(-c3c(-c4ccc(F)cc4)ncn3C3CCCC3)o2)c1 [Compound 12, 5-(1-cyclopentyl-4-(4-fluorophenyl)-1H-imidazol-5-yl)-N-(3-methoxyphenyl)furan-2-carboxamide]
< 10	2.33	4.05	COc1ccc(NC(=O)c2ccc(-c3c(-c4ccc(F)cc4)ncn3C3CCCC3)o2)c(OC)c1 [Compound 18, 5-(1-cyclopentyl-4-(4-fluorophenyl)-1H-imidazol-5-yl)-N-(2,4-dimethoxyphenyl)furan-2-carboxamide]
59	59	83.4	O=C(Nc1cccc(F)c1)c1ccc(-c2c(-c3ccc(F)cc3)ncn2C2CCCC2)o1 [Compound 25, 5-(1-cyclopentyl-4-(4-fluorophenyl)-1H-imidazol-5-yl)-N-(3-fluorophenyl)furan-2-carboxamide]
42	42	93.2	COc1ccc(NC(=O)c2ccc(-c3c(-c4ccc(F)cc4)ncn3C3CCCC3)o2)cc1OC [Compound 11, 5-(1-cyclopentyl-4-(4-fluorophenyl)-1H-imidazol-5-yl)-N-(3,4-dimethoxyphenyl)furan-2-carboxamide]

Reference: patent publication US11739078B2, “Methods of inhibiting kinases” (INSILICO MEDICINE IP LIMITED, priority 2019, dated 2023)
